Patent publication US20240182526A1, “COMPOSITIONS AND METHODS FOR MODULTING INFLAMMATORY AND DEGENERATIVE DISORDER” (University of Southern California, priority 2021, published 2024)
Entries after “also recorded” stand apart in the source; their conditions may differ.

Tests used:
STAT3 = assay: Western blot of STAT3 signaling in osteoarthritic chondrocytes; format: cell-based, human; details: 4 and 24 hours
Experimental: (§1) For standard western blot, treated and non-treated cells were lysed in RIPA Lysis and Extraction Buffer (Pierce, Rockford, IL) containing protease inhibitors (Pierce) followed by sonication with a 15-second pulse at a power output of 2 using the VirSonic 100 (SP Industries Company, Warminster, PA). Protein concentrations were determined by BCA protein assay (Pierce). Proteins were resolved with SDS-PAGE utilizing 4-15% Mini-PROTEAN TGX Precast Gels and transferred to Trans-Blot Turbo Transfer Packs with a 0.2-μm pore-size nitrocellulose membrane. The SDS-PAGE running buffer, 4-15% Mini-PROTEAN TGX Precast Gels, Trans-Blot Turbo Transfer Packs with a 0.2-μm pore-size nitrocellulose membrane was purchased from Biorad (Hercules, CA). Nitrocellulose membranes were blocked in 5% nonfat milk in 0.05% (v/v) Tween 20 (PBST) (Corning, Manassas, VA). Membranes were then incubated with primary antibodies p-gp130 Y814 (Evseenko lab, AbClonal), p-AKT (cat #4060, Cell Signaling), p-ERK 1/2 (cat #9106, Cell Signaling), p-Y416-SRC (cat #1246F, Novus Biologicals), p-gp130 (cat #1453R, Bioss USA) and p-NFκBp65 (cat #8242, Cell Signaling), and/or YAP1 (cat #4912, Cell Signaling). Histone H3 (cat #9515, Cell Signaling) was used as loading control. […] Quantification of blots was performed using ImageJ 1.44 followed by Prism9 for analysis.

[1] = molecular target: T1, heterodimerization of gp130 with IL-6 family of cytokines' alpha receptors (Homo sapiens, UniProt P40189); assay: Receptor-competition assay (co-IP of gp130 FLAG with alpha receptors); format: cell-based; details: articular chondrocytes transfected with gp130 FLAG, different doses, 4 and 24 hours
T1 construct: A plasmid encoding full-length gp130 (WTgp130; InVivoGen) was used to create the 5 mutants; expressed in transfected cells
T1 sequence (P40189 23-918, one chain of several): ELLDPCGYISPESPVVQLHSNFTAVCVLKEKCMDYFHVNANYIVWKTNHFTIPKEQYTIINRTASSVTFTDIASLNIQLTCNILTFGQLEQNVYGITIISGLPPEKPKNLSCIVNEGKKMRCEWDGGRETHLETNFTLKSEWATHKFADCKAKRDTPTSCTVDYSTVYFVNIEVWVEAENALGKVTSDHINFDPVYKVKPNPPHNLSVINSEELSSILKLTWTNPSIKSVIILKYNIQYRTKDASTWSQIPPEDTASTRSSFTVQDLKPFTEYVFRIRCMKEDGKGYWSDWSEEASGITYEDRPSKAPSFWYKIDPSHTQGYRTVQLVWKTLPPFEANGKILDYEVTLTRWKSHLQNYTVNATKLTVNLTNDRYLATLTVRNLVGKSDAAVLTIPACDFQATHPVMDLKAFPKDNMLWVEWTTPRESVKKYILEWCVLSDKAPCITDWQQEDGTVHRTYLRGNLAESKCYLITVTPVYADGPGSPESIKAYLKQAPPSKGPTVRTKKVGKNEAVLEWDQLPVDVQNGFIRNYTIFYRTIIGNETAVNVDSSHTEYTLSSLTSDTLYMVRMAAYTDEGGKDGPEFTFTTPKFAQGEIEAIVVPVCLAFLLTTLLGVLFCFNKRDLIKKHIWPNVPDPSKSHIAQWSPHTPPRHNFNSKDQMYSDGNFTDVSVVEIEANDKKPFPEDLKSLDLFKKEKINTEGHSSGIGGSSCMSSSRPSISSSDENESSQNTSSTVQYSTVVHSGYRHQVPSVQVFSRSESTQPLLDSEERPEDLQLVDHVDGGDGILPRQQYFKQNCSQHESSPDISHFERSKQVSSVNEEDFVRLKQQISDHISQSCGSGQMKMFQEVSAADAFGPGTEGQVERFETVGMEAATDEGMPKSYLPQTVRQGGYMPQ
Experimental: IP Western, SDS-PAGE and Western blot analysis. For transfections of gp130 wild type (WT) (InVivoGen) and gp130 mutant plasmids (Thermo Scientific), cells were plated 24 h prior to transfection to produce monolayers that were 60% confluent and these were transfected by using Turbo DNAfectin 3000 (cat #G3000, Lambda Biotech) according to the manufacturer's protocol. 72h after transfection, cells were maintained in DMEM (10% FBS, 1% PSA) and were either left untreated or were stimulated with IL-6 (10 ng/mL) and/or OSM (10 ng/mL) for 24 h before cell harvest and protein extraction. For immunoprecipitation assays, cell lysates were incubated with Protein G Agarose (cat #20398, Pierce) and anti-Flag antibody (cat #2368, Cell Signaling) at 4° C. overnight. The immune complexes were sedimented, washed and separated by SDS-PAGE (see below) and further analyzed by Western blot using p-SRC (pY416-SRC) (cat #1246F, Novus Biologicals) or NEMO (cat #18474-1-AP, Proteintech) antibodies and normalized to gp130 (cat #bs-1459R, Bioss) or total SRC (cat #2123, Cell Signaling). For R805 treatment, the immune complexes were sedimented, washed and separated by SDS-PAGE and further analyzed by Western blot using OSMR (cat #ab85575, Abcam), LIFR (Santa cat #515337, Cruz Biotechnology) or p-SRC (pY416-SRC) (Novus Biologicals, cat #1246F). […]

[2] = tested on: pro-inflammatory signaling in osteoarthritic chondrocytes; assay: Western blot of pro-inflammatory signaling proteins in osteoarthritic chondrocytes; format: cell-based, human; details: 4 and 24 hours
Experimental: as §1

[3] = tested on: mouse skin excisional wound; assay: Wound-induced hair neogenesis (WIHN) assay, skin excisional wound; format: in vivo
Experimental: Single-cell sequencing using 10× Genomics. Single cell samples were prepared using Next GEM Single Cell 5′ v2 (dual index) and Chip Kit (10× Genomics) according to the manufacturer's protocol. Briefly samples were FACS sorted using DAPI to select live cells followed by resuspension in 0.04% BSA-PBS. Nearly 1200 cells/μl were added to each well of the chip with a target cell recovery estimate of 10000 cells. Thereafter Gel bead-in Emulsions (GEMs) were generated using GemCode Single-Cell Instrument. GEMs were reverse transcribed, droplets were broken and single stranded cDNA was isolated. cDNAs were cleaned up with DynaBeads and amplified. Finally, cDNAs were ligated with adapters, post-ligation products were amplified, cleaned-up with SPRIselect and purified libraries were sequenced on Novaseq.
Wound-induced hair neogenesis assay. The WHIN assay was previously described. Briefly, a 1.5×1.5 cm square full thickness wound was excised on the posterior dorsum of 6-week-oldf mice, and observed for hair neogenesis and wound histology. Mice were anesthetized using isofluorane, full thickness skin was excised, and analgesic Buprenorphine SR (0.5 mg/kg) was given by intraperitoneal injection (IP) at the beginning of the procedure. Additional DietGel Boost (ClearH2O) was placed on the bottom of the cage during the first week post-operation. For R805-treatment, R805 (10 μM or 20 μM) was applied topically to the wound of WT mice.
Alkaline phosphatase (ALP) stain. To detect newly forming dermal papillae, alkaline phosphatase staining was performed as previously reported. Briefly, full thickness wounds were excised and epidermis separated from the dermis using 20 mM EDTA. The dermis was fixed in acetone overnight at 4° C., and washed in PBS several times. The dermis was pre-incubated in ALP buffer (0.1 M Tris-HCl, 0.1 M NaCl, 5 mM MgCl2 and 0.1% Tween-20) for 30 min, incubated with BCIP/NBT Color Development Substrate (Promega, Madison, WI, USA) in ALP buffer at 37° C. until color development. The reaction was stopped by washing with pH 8.0 Tris-EDTA and the tissue stored in PBS with sodium azide. 5 wounds were calculated for each strain of mice.
Hair fiber length quantification. To quantify regenerated hair fiber length, hair fibers from respective wounds were plucked, aligned and photographed next to a ruler under the dissecting microscope. The length of the hair fibers was measured and analyzed using ImageJ. 3-4 hairs were randomly plucked from each wound and analyzed.

[4] = topical on WT mouse wound, PWD 21

Compound: Cc1ccc(-c2csc(NC(=O)c3ccccn3)n2)cc1 [Peptide R805]
- STAT3 signaling in diseased joint cells (STAT3): minimally affected STAT3 signaling in a diseased joint
- IL-6 family-induced heterodimerization of gp130 with α-receptors [1]: markedly suppressed; also recorded: inhibits heterodimerization of gp130 with IL-6 family of cytokines' alpha receptors
- pro-inflammatory signaling in diseased tissue [2]: markedly suppressed; also recorded: prevents pro-inflammatory signaling in diseased tissue
- scRNA-seq macrophage clusters of skin wounds ([3]; PWD 14): higher expression of genes characteristic of pro-regenerative/anti-inflammatory macrophages
- hair fiber length and number of hair follicles ([3]; topical on WT mouse wound): increase of hair fiber length and number of hair follicles
- hair follicle neogenesis and dermal regeneration [3, 4]: significant hair follicle neogenesis and dermal regeneration; also recorded: enhanced wound-induced hair neogenesis
- wound histology (thickness, contraction, collagen deposition) [3, 4]: thicker, less contracted and shows less collagen deposition
